Legend:
Assay in all cases: Ambit KinomeScan screening
Assay type in all cases: binding
Details in all cases: CAL-130 10 μM
[1] = target: T1, ABL1(F317I) (Homo sapiens, UniProt P00519, F317I)
T1 construct: unspecified tag ("tagged kinases"); purchased Ambit (KinomeScan screening)
Summary of the method: (§1)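 Displacement of tagged kinase from bait ligand on solid support was assessed using 10 μM CAL-130. Each value is the fraction of control binding retained, expressed in percent; a cutoff of >35% defines no hit.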

[2] = target: T2, ABL1(F317L) (Homo sapiens, UniProt P00519, F317L)
T2 construct: unspecified tag ("tagged kinases"); purchased Ambit (KinomeScan screening)
Summary of the method: as §1

[3] = target: T3, ACVR2A (Homo sapiens, UniProt P27037)
T3 construct: purchased Ambit (KinomeScan screening)
Summary of the method: as §1

[4] = target: T4, AURKA (Homo sapiens, UniProt O14965)
T4 construct: purchased Ambit (KinomeScan screening service)
Summary of the method: as §1

[5] = target: T5, BIKE (Homo sapiens, UniProt Q9NSY1)
T5 construct: purchased Ambit (KinomeScan screening service)
Summary of the method: as §1

[6] = target: T6, CAMK1D (Homo sapiens, UniProt Q8IU85)
T6 construct: unspecified tag ("tagged kinases"); purchased Ambit (KinomeScan screening)
Summary of the method: as §1

[7] = target: T7, CAMK2G (Homo sapiens, UniProt Q13555)
T7 construct: purchased Ambit (KinomeScan screening)
Summary of the method: as §1

[8] = target: T8, CDKL5 (Homo sapiens, UniProt O76039)
T8 construct: purchased Ambit (KinomeScan screening service)
T8 sequence (O76039 whole entry): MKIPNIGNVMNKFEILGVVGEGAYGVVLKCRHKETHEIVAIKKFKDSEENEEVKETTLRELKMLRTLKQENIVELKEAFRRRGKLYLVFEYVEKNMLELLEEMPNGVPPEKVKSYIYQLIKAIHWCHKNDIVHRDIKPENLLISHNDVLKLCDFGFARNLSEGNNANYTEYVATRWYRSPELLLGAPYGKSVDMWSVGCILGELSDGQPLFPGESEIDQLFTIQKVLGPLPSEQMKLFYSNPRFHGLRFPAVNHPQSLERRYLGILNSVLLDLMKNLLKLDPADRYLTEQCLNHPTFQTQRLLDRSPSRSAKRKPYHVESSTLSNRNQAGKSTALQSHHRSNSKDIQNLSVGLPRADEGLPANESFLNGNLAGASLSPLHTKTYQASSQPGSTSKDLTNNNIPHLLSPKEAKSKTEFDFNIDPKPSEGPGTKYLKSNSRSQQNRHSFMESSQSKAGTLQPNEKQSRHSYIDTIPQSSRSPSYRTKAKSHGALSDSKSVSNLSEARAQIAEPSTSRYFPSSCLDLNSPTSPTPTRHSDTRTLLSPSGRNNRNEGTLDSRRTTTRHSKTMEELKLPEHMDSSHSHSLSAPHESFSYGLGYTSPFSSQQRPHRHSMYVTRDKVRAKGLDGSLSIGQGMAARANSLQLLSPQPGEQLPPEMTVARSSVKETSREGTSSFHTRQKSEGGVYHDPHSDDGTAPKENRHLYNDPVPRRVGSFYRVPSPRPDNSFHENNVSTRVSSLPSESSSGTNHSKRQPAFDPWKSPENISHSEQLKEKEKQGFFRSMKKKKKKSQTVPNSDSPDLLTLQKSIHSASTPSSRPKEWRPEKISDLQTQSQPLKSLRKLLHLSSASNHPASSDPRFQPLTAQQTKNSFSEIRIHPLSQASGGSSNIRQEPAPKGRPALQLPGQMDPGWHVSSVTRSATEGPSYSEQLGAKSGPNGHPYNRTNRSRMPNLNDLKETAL
Summary of the method: as §1

[9] = target: T9, CHEK1 (Homo sapiens, UniProt O14757)
T9 construct: purchased Ambit (KinomeScan screening service)
Summary of the method: as §1

[10] = target: T10, CLK3 (Homo sapiens, UniProt P49761)
T10 construct: purchased Ambit (KinomeScan screening service)
Summary of the method: as §1

[11] = target: T11, CSNK1G3 (Homo sapiens, UniProt Q9Y6M4)
T11 construct: purchased Ambit (KinomeScan screening service)
Summary of the method: as §1

[12] = target: T12, CTK (Homo sapiens, UniProt P42679)
T12 construct: purchased Ambit (KinomeScan screening service)
T12 sequence (P42679 whole entry): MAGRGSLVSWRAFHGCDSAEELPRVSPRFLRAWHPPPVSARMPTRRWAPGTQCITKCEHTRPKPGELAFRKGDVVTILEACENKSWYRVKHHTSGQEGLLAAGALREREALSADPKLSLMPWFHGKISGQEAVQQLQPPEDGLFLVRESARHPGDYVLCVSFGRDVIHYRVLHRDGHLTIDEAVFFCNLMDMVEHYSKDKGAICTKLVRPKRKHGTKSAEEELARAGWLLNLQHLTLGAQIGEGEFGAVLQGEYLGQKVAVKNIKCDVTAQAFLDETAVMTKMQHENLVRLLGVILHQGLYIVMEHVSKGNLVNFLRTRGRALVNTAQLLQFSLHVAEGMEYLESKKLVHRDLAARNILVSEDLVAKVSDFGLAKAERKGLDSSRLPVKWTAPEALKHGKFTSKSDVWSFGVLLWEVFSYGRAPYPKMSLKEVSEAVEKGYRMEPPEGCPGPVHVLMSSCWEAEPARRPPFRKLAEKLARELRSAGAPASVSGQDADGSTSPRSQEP
Summary of the method: as §1

[13] = target: T13, DYRK1A (Homo sapiens, UniProt Q13627)
T13 construct: unspecified tag ("tagged kinases"); purchased Ambit (KinomeScan screening service)
Summary of the method: as §1

[14] = target: T14, EPHA6 (Homo sapiens, UniProt Q9UF33)
T14 construct: purchased Ambit (KinomeScan screening service)
Summary of the method: as §1

[15] = target: T15, FLT3(N841I) (Homo sapiens, UniProt P36888, N841I)
T15 construct: unspecified tag; purchased Ambit (KinomeScan screening service)
Summary of the method: as §1

[16] = target: T16, HIPK3 (Homo sapiens, UniProt Q9H422)
T16 construct: Ambit (KinomeScan screening)
Summary of the method: as §1

[17] = target: T17, JNK3 (Homo sapiens, UniProt P53779)
T17 construct: purchased Ambit (KinomeScan screening)
Summary of the method: as §1

[18] = target: T18, LTK (Homo sapiens, UniProt P29376)
T18 construct: unspecified tag ('tagged kinases'); purchased Ambit (KinomeScan screening service)
Summary of the method: as §1

[19] = target: T19, MAP3K4 (Homo sapiens, UniProt Q9Y6R4)
T19 construct: Ambit (KinomeScan screening)
Summary of the method: as §1

[20] = target: T20, MEK6 (Homo sapiens, UniProt P52564)
T20 construct: purchased Ambit (KinomeScan screening)
Summary of the method: as §1

[21] = target: T21, MERTK (Homo sapiens, UniProt Q12866)
T21 construct: purchased Ambit (KinomeScan screening)
Summary of the method: as §1

[22] = target: T22, MET (Homo sapiens, UniProt P08581)
T22 construct: purchased Ambit (KinomeScan screening)
T22 sequence (P08581 25-1390): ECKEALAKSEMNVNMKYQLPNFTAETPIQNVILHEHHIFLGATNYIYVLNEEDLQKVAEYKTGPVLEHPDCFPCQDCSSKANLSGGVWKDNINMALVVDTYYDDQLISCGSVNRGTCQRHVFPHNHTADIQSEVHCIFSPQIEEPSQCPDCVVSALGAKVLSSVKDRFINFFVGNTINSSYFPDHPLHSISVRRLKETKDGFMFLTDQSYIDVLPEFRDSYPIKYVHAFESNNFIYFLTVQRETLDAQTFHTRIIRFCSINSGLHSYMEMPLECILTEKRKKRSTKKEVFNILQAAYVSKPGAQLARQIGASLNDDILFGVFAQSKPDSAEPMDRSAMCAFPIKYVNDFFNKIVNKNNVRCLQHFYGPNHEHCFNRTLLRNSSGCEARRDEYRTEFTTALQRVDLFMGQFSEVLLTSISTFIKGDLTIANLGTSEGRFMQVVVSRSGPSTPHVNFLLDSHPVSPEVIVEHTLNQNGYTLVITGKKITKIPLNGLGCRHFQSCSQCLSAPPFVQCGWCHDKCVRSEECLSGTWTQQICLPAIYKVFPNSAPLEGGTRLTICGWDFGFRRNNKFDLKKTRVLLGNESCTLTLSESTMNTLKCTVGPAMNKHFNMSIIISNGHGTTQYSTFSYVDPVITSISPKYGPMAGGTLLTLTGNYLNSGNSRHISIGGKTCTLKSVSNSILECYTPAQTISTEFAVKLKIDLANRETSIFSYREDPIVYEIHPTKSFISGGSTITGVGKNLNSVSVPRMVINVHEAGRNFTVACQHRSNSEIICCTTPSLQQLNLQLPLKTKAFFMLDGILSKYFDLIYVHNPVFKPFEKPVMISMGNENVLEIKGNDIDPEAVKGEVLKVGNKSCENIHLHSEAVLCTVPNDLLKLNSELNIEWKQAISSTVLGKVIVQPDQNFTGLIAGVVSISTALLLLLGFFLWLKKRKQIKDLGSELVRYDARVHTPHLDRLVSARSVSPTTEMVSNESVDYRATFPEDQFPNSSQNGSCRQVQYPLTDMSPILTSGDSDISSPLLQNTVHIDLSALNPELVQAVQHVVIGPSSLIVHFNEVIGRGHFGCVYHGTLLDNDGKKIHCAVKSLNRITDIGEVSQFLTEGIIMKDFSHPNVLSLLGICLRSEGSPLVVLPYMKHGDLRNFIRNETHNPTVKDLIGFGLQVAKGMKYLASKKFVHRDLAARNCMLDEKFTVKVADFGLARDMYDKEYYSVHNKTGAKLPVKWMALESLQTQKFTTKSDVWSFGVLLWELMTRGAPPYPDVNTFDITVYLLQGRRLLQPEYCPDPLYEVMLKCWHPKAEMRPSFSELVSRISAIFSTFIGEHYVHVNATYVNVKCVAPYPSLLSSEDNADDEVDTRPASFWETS
Summary of the method: as §1

[23] = target: T23, MUSK (Homo sapiens, UniProt O15146)
T23 construct: unspecified tag; purchased Ambit (KinomeScan screening panel)
Summary of the method: as §1

[24] = target: T24, NEK7 (Homo sapiens, UniProt Q8TDX7)
T24 construct: purchased Ambit (KinomeScan screening service)
Summary of the method: as §1

[25] = target: T25, NIM1 (Homo sapiens, UniProt Q8IY84)
T25 construct: purchased Ambit (KinomeScan screening service)
T25 sequence (Q8IY84 whole entry): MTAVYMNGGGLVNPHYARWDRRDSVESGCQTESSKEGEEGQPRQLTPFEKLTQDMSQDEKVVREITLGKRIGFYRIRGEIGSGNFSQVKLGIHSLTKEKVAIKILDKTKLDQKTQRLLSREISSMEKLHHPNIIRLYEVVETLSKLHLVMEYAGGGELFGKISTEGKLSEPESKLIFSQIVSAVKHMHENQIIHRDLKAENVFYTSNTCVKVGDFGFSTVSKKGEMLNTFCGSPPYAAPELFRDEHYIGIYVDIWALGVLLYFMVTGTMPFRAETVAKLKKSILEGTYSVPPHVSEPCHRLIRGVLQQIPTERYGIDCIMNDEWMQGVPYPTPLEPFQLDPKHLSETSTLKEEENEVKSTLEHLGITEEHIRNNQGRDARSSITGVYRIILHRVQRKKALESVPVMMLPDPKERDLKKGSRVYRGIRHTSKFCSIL
Summary of the method: as §1

[26] = target: T26, PCTK3 (Homo sapiens, UniProt Q07002)
T26 construct: unspecified tag ('tagged kinases'); purchased Ambit (KinomeScan screening)
T26 sequence (Q07002 whole entry): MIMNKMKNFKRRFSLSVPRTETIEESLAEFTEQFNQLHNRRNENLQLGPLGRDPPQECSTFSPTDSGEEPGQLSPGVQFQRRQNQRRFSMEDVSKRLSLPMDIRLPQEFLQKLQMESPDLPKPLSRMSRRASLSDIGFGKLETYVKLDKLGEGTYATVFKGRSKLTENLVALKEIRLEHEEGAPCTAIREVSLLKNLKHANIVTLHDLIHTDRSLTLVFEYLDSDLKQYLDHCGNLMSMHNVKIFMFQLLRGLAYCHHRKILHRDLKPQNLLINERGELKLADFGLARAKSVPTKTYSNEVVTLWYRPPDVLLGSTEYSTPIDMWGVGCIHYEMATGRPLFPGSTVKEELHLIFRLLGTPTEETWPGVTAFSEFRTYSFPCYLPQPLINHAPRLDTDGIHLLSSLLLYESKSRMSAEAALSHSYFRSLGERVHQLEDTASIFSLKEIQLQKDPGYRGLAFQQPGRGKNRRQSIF
Summary of the method: as §1

[27] = target: T27, PDPK1 (Homo sapiens, UniProt O15530)
T27 construct: unspecified tag ('tagged kinases'); purchased Ambit (KinomeScan screening)
Summary of the method: as §1

[28] = target: T28, PIK4CB (Homo sapiens, UniProt Q9UBF8)
T28 construct: unspecified tag; purchased Ambit (KinomeScan screening panel)
Summary of the method: as §1

[29] = target: T29, PLK2 (Homo sapiens, UniProt Q9NYY3)
T29 construct: purchased Ambit (KinomeScan screening service)
Summary of the method: as §1

[30] = target: T30, PRKG2 (Homo sapiens, UniProt Q13237)
T30 construct: tag (kind not specified); purchased Ambit (KinomeScan screening service)
Summary of the method: as §1

[31] = target: T31, QSK (Homo sapiens, UniProt Q9Y2K2)
T31 construct: tag (kind not specified); purchased Ambit (KinomeScan screening service)
T31 sequence (Q9Y2K2 whole entry): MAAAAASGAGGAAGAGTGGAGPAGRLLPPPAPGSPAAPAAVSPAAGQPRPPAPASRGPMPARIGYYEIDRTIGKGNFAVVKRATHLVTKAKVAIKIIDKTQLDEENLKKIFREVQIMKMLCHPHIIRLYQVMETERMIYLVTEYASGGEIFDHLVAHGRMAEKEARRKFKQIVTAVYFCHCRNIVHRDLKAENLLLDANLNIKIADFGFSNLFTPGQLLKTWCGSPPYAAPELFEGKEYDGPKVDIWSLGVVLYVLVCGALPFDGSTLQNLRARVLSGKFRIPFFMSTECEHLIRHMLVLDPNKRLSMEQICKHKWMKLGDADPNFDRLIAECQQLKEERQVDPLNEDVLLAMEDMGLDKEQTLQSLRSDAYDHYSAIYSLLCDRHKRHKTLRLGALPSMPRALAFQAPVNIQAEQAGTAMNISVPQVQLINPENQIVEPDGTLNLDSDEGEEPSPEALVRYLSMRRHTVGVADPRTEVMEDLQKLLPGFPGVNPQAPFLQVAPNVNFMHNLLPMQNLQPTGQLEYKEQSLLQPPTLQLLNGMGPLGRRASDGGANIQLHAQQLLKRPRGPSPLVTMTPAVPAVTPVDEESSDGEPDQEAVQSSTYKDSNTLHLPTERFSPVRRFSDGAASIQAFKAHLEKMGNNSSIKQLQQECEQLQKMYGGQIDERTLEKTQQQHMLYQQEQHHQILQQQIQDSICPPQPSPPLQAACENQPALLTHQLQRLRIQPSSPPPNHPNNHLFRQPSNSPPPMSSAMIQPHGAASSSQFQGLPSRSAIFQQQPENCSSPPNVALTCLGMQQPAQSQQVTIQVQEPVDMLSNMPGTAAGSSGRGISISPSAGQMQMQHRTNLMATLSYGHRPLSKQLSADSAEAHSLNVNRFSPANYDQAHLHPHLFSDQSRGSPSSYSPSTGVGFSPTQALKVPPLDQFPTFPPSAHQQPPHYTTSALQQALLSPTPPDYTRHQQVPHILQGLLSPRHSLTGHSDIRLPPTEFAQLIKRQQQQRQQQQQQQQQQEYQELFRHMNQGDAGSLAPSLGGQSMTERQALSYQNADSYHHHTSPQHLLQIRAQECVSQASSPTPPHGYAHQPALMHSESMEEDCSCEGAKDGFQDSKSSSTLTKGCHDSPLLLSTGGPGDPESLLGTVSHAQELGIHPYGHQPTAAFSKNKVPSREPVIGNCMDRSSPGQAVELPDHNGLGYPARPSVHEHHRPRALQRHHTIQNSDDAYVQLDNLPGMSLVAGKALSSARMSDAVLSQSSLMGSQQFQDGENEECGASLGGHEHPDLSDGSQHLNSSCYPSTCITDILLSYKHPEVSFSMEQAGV
Summary of the method: as §1

[32] = target: T32, RET(V804L) (Homo sapiens, UniProt P07949, V804L)
T32 construct: tag (kind not specified); purchased Ambit (KinomeScan screening service)
Summary of the method: as §1

[33] = target: T33, SIK (Homo sapiens, UniProt P57059)
T33 construct: tag, kind not specified; purchased Ambit (KinomeScan screening service)
Summary of the method: as §1

[34] = target: T34, STK36 (Homo sapiens, UniProt Q9NRP7)
T34 construct: tag (kind not specified); purchased Ambit (KinomeScan screening service)
Summary of the method: as §1

[35] = target: T35, TEC (Homo sapiens, UniProt P42680)
T35 construct: unspecified tag (tagged kinase); purchased Ambit (KinomeScan screening)
Summary of the method: as §1

[36] = target: T36, TLK2 (Homo sapiens, UniProt Q86UE8)
T36 construct: unspecified tag (tagged kinase); purchased Ambit (KinomeScan screening)
Summary of the method: as §1

Measured: Percent of Control Binding

Cc1ccccc1-n1c(C(C)Nc2nc(N)nc3nc[nH]c23)nc2cccc(C)c2c1=O (stereo not drawn) [CAL-130]
100%: [1] | [2] | [3] | [4] | [5] | [6] | [7] | [8] | [9] | [10] | [11] | [12] | [13] | [14] | [15] | [16] | [17] | [18] | [19] | [20] | [21] | [22] | [23] | [24] | [25] | [26] | [27] | [28] | [29] | [30] | [31] | [32] | [33] | [34] | [35] | [36]

Source: patent US11969428B2, “Methods and pharmaceutical compositions for treating lymphoid malignancy” (priority 2011, dated 2024)
